Assay results published in patent US5214047A, “Tetracyclic quinazoline derivatives, effective as antiarrythmic agents” (priority 1987, dated 1993).
Counter-ions that a name gives are not always drawn. Like-named read-outs stand apart in the source and are kept apart here.

Test system: QT interval
Assay: QT interval prolongation (ECG, class III action) in anesthetized guinea pigs
Format: in vivo, Pirbright white guinea pigs
Conditions: for ED (20%): Cavia porcellus, read-out: Prolongation of the QT interval ED20%; for Potency relative to that of d-sotalol = 1.0: QT prolongation, ED20%
Description: The action of the novel substances has been tested as follows:
The experimental animals used were male and female Pirbright white guinea pigs weighing 300-500 g. 1.5 g/kg urethane i.p. were used for anesthesia. The substances were administered intravenously. The extremity lead II was recorded to measure the ECG conduction times and the heart rate. The measured variables were the QT and PQ intervals and the heart rate. 4-6 animals were used for each dose. The criterion for a class III action was an increase in the QT interval compared with the values before administration of the substance. A PQ increase and a large decrease in the heart rate were used as exclusion criteria. The ED20% is calculated from the linear relation between log dose (mg/kg) of the substance and the relative prolongation of the QT interval (Δ%).

[1] = guinea pigs, urethane anesthesia, intravenous, dose for 20% QT prolongation calculated from log dose (mg/kg) vs relative QT prolongation

Cc1ccc(C23CCCN2c2ccccc2C2=NCCN23)cc1 (stereo not drawn) [Example 1, 2,3,5,6,7,8-Hexahydro-5-(4-methylphenyl)imidazo[1,2-c]pyrrolo[1,2-a]quinazoline]
ED (20%) [1]: 1 mg/kg | Potency relative to that of d-sotalol = 1.0 (guinea pigs, intravenous): 3.6

Clc1ccc(C23CCCN2c2ccccc2C2=NCCN23)cc1 (stereo not drawn) [Example 2]
ED (20%) (iv): 1.1 mg/kg | Potency relative to that of d-sotalol = 1.0 (guinea pigs, intravenous): 3.3

Fc1ccc(C23CCCN2c2ccccc2C2=NCCN23)cc1 (stereo not drawn) [Example 4, 5-(4-Fluorophenyl)-2,3,5,6,7,8-hexahydroimidazo[1,2-c]pyrrolo[1,2-a]quinazoline]
ED (20%) [1]: 0.21 mg/kg | Potency relative to that of d-sotalol = 1.0 (guinea pigs, intravenous): 17

COc1cc2c(cc1OC)N1CCCC1(c1ccccc1)N1CCN=C21 (stereo not drawn) [Example 5, 2,3,5,6,7,8-Hexahydro-11,12-dimethoxy-5-phenylimidazo[1,2-c]pyrrolo[1,2-a]quinazoline]
ED (20%) [1]: 1 mg/kg | Potency relative to that of d-sotalol = 1.0 (guinea pigs, intravenous): 3.5

COc1ccc(C23CCCN2c2ccccc2C2=NCCN23)cc1 (stereo not drawn) [Example 8]
ED (20%) [1]: 0.61 mg/kg | Potency relative to that of d-sotalol = 1.0 (guinea pigs, intravenous): 6.0

Clc1ccc(C23CCCN2c2ccccc2C2=NCCN23)cc1Cl (stereo not drawn) [Example 9]
ED (20%) [1]: 1.5 mg/kg | Potency relative to that of d-sotalol = 1.0 (guinea pigs, intravenous): 2.4

Clc1ccc2c(c1)N1CCCC1(c1ccccc1)N1CCN=C21 (stereo not drawn) [Example 11, 11-Chloro-2,3,5,6,7,8-hexahydro-5-phenylimidazo[1,2-c]pyrrolo[1,2-a]quinazoline]
ED (20%) [1]: 0.4 mg/kg | Potency relative to that of d-sotalol = 1.0 (guinea pigs, intravenous): 9.0

Clc1ccc(C23CCCN2c2ccccc2C2=NCCN23)c(Cl)c1 (stereo not drawn) [Example 13, 5-(2,4-Dichlorophenyl)-2,3,5,6,7,8-hexahydroimidazo[1,2-c]pyrrolo[1,2-a]quinazoline hydrochloride]
ED (20%) [1]: 0.99 mg/kg | Potency relative to that of d-sotalol = 1.0 (guinea pigs, intravenous): 3.7

Fc1ccc(C23CCCN2c2cc(Cl)ccc2C2=NCCN23)cc1 (stereo not drawn) [Example 15, 11-Chloro-5-(4-fluorophenyl)-2,3,5,6,7,8-hexahydroimidazo[1,2-c]pyrrolo[1,2-a]quinazoline hydrochloride]
ED (20%) [1]: 0.43 mg/kg | Potency relative to that of d-sotalol = 1.0 (guinea pigs, intravenous): 8.5

Clc1ccc(C23CCCN2c2ccccc2C2=NCCN23)s1 (stereo not drawn) [Example 19, 5-(2-(5-Chlorothienyl))-2,3,5,6,7,8-hexahydroimidazo[1,2-c]pyrrolo[1,2-a]quinazoline hydrochloride]
ED (20%) [1]: 1.4 mg/kg | Potency relative to that of d-sotalol = 1.0 (guinea pigs, intravenous): 2.6

O=[N+]([O-])c1ccc(C23CCCN2c2ccccc2C2=NCCN23)cc1 (stereo not drawn) [Example 21, 2,3,5,6,7,8-Hexahydro-5-(4-nitrophenyl)imidazo[1,2-c]pyrrolo[1,2-a]quinazoline hydrochloride]
ED (20%) [1]: 0.46 mg/kg | Potency relative to that of d-sotalol = 1.0 (guinea pigs, intravenous): 8.0

c1ccc(C23CCCN2c2ccccc2C2=NC4CCCCC4N23)cc1 (stereo not drawn) [Example 22, 2,3,5,6,7,8-Hexahydro-2,3-tetramethylene-5-phenylimidazo[1,2-c]pyrrolo[1,2-a]quinazoline]
ED (20%) (iv): 0.56 mg/kg | Potency relative to that of d-sotalol = 1.0 (guinea pigs, intravenous): 6.5

CC1CN=C2c3ccccc3N3CCCC3(c3ccccc3)N21 (stereo not drawn) [Example 24, hydrochloride]
ED (20%) [1]: 0.29 mg/kg | Potency relative to that of d-sotalol = 1.0 (guinea pigs, intravenous): 12

c1csc(C23CCCN2c2ccccc2C2=NCCCN23)c1 (stereo not drawn) [Example 25]
ED (20%) [1]: 0.58 mg/kg | Potency relative to that of d-sotalol = 1.0 (guinea pigs, intravenous): 6.2

Clc1ccc(C23CCCN2c2ccccc2C2=NCCCN23)cc1 (stereo not drawn) [Example 26, 6-(4-Chlorophenyl)-2,3,6,7,8,9-hexahydro-2H-pyrimido[1,2-c]pyrrolo[1,2-a]quinazoline]
ED (20%) [1]: 1.5 mg/kg | Potency relative to that of d-sotalol = 1.0 (guinea pigs, intravenous): 2.4

Fc1ccc(C23CCCN2c2ccccc2C2=NCCCN23)cc1 (stereo not drawn) [Example 27, 6-(4-Fluorophenyl)-2,3,5,6,7,8-hexahydro-2H-pyrimido[1,2-c]pyrrolo[1,2-a]quinazoline]
ED (20%) [1]: 0.42 mg/kg | Potency relative to that of d-sotalol = 1.0 (guinea pigs, intravenous): 8.7

Clc1ccc(C23CCCN2c2ccccc2C2=NCCCN23)cc1Cl (stereo not drawn) [Example 28, 6-(3,4-Dichlorophenyl)-2,3,5,6,7,8-hexahydro-2H-pyrimido[1,2-c]pyrrolo[1,2-a]quinazoline]
ED (20%) [1]: 0.94 mg/kg | Potency relative to that of d-sotalol = 1.0 (guinea pigs, intravenous): 3.9

Clc1ccc2c(c1)C1=NCCCN1C1(c3ccccc3)CCCN21 (stereo not drawn) [Example 29, 13-Chloro-2,3,5,6,7,8-hexahydro-6-phenyl-2H-pyrimido[1,2-c]pyrrolo[1,2-a]quinazoline hydrochloride]
ED (20%) [1]: 0.55 mg/kg | Potency relative to that of d-sotalol = 1.0 (guinea pigs, intravenous): 6.6

Fc1ccc(C23CCCN2c2ccc(Cl)cc2C2=NCCCN23)cc1 (stereo not drawn) [Example 30, 13-Chloro-6-(4-fluorophenyl)-2,3,5,6,7,8-hexahydro-2H-pyrimido[1,2-c]pyrrolo[1,2-a]quinazoline]
ED (20%) [1]: 1 mg/kg | Potency relative to that of d-sotalol = 1.0 (guinea pigs, intravenous): 3.6

O=[N+]([O-])c1cccc(C23CCCN2c2ccccc2C2=NCCCN23)c1 (stereo not drawn) [Example 31, 2,3,5,6,7,8-Hexahydro-6-(3-nitrophenyl)-2H-pyrimido[1,2-c]pyrrolo[1,2-a]quinazoline]
ED (20%) [1]: 0.56 mg/kg | Potency relative to that of d-sotalol = 1.0 (guinea pigs, intravenous): 6.5

Clc1ccc(C23CCCN2c2ccccc2C2=NCCCN23)s1 (stereo not drawn) [Example 33, 6-(2-(5-Chlorothienyl))-2,3,5,6,7,8-hexahydro-2H-pyrimido[1,2-c]pyrrolo[1,2-a]quinazoline]
ED (20%) [1]: 1.5 mg/kg | Potency relative to that of d-sotalol = 1.0 (guinea pigs, intravenous): 2.4

O=[N+]([O-])c1ccc(C23CCCN2c2ccccc2C2=NCCCN23)cc1 (stereo not drawn) [Example 34, 2,3,5,6,7,8-Hexahydro-6-(4-nitrophenyl)-2H-pyrimido[1,2-c]pyrrolo[1,2-a]quinazoline]
ED (20%) [1]: 0.61 mg/kg | Potency relative to that of d-sotalol = 1.0 (guinea pigs, intravenous): 6.0

COc1ccc(C23CCCN2c2ccccc2C2=NCCCN23)cc1 (stereo not drawn) [Example 35, 2,3,5,6,7,8-Hexahydro-6-(4-methoxyphenyl)-2H-pyrimido[1,2-c]pyrrolo[1,2-a]quinazoline hydrochloride]
ED (20%) [1]: 0.63 mg/kg | Potency relative to that of d-sotalol = 1.0 (guinea pigs, intravenous): 5.7

Clc1ccc2c(c1)N1CCCC1(c1ccccc1)N1CCCN=C21 (stereo not drawn) [Example 37, 12-Chloro-2,3,5,6,7,8-hexahydro-6-phenyl-2H-pyrimido[1,2-c]pyrrolo[1,2-a]quinazoline hydrochloride]
ED (20%) [1]: 0.69 mg/kg | Potency relative to that of d-sotalol = 1.0 (guinea pigs, intravenous): 5.3

Fc1ccc(C23CCCN2c2cc(Cl)ccc2C2=NCCCN23)cc1 (stereo not drawn) [Example 38, 2-Chloro-6-(4-fluorophenyl)-2,3,5,6,7,8-hexahydro-2H-pyrimido[1,2-c]pyrrolo[1,2-a]quinazoline hydrochloride]
ED (20%) [1]: 0.83 mg/kg | Potency relative to that of d-sotalol = 1.0 (guinea pigs, intravenous): 4.4

CC1(C)CN=C2c3ccccc3N3CCCC3(c3ccccc3)N2C1 (stereo not drawn) [Example 41, 2,3,5,6,7,8-Hexahydro-3,3-dimethyl-6-phenyl-2H-pyrimido[1,2-c]pyrrolo[1,2-a]quinazoline hydrochloride]
ED (20%) [1]: 0.46 mg/kg | Potency relative to that of d-sotalol = 1.0 (guinea pigs, intravenous): 7.8

CC1(C)CN=C2c3ccccc3N3CCCC3(c3ccc([N+](=O)[O-])cc3)N2C1 (stereo not drawn) [Example 42, 2,3,5,6,7,8-Hexahydro-3,3-dimethyl-6-(4-nitrophenyl)-2H-pyrimido[1,2-c]pyrrolo[1,2-a]quinazoline hydrochloride]
ED (20%) [1]: 0.78 mg/kg | Potency relative to that of d-sotalol = 1.0 (guinea pigs, intravenous): 4.7

CC1(C)CN=C2c3ccccc3N3CCCC3(c3ccccc3)N21 (stereo not drawn) [Example 43, 2,3,5,6,7,8-Hexahydro-3,3-dimethyl-5-phenylimidazo[1,2-c]pyrrolo[1,2-a]quinazoline hydrochloride]
ED (20%) [1]: 0.6 mg/kg | Potency relative to that of d-sotalol = 1.0 (guinea pigs, intravenous): 6.1

CC1(C)CCN=C2c3ccccc3N3CCCC3(c3ccccc3)N21 (stereo not drawn) [Example 44, 2,3,5,6,7,8-Hexahydro-4,4-dimethyl-6-phenyl-2H-pyrimido[1,2-c]pyrrolo[1,2-a]quinazoline hydrochloride]
ED (20%) [1]: 0.49 mg/kg | Potency relative to that of d-sotalol = 1.0 (guinea pigs, intravenous): 7.4

CC1(C)CN=C2c3ccccc3N3CCCC3(c3ccc(F)cc3)N21 (stereo not drawn) [Example 45, hydrochloride]
ED (20%) [1]: 0.59 mg/kg | Potency relative to that of d-sotalol = 1.0 (guinea pigs, intravenous): 6.2

CC1(C)CN=C2c3ccccc3N3CCCC3(c3ccc([N+](=O)[O-])cc3)N21 (stereo not drawn) [Example 46, 2,3,5,6,7,8-Hexahydro-3,3-dimethyl-5-(4-nitrophenyl)imidazo[1,2-c]pyrrolo[1,2-a]quinazoline hydrochloride]
ED (20%) [1]: 0.55 mg/kg | Potency relative to that of d-sotalol = 1.0 (guinea pigs, intravenous): 6.7

CC1(C)CCN=C2c3ccccc3N3CCCC3(c3ccc([N+](=O)[O-])cc3)N21 (stereo not drawn) [Example 47, 2,3,5,6,7,8-Hexahydro-4,4-dimethyl-6-(4-nitrophenyl)-2H-pyrimido[1,2-c]pyrrolo[1,2-a]quinazoline hydrochloride]
ED (20%) [1]: 0.52 mg/kg | Potency relative to that of d-sotalol = 1.0 (guinea pigs, intravenous): 7.0

CC1CN=C2c3ccccc3N3CCCC3(c3ccc([N+](=O)[O-])cc3)N21 (stereo not drawn) [Example 48, 2,3,5,6,7,8-Hexahydro-3-methyl-5-(4-nitrophenyl)imidazo[1,2-c]pyrrolo[1,2-a]quinazoline hydrochloride]
ED (20%) [1]: 0.31 mg/kg | Potency relative to that of d-sotalol = 1.0 (guinea pigs, intravenous): 11.8

c1ccc(C23CCCN2c2ccccc2C2=NCCCN23)cc1 (stereo not drawn) [Example 49, 2,3,5,6,7,8-Hexahydro-6-phenyl-2H-pyrimido[1,2-c]pyrrolo[1,2-a]quinazoline hydrochloride]
ED (20%) [1]: 0.32 mg/kg | Potency relative to that of d-sotalol = 1.0 (guinea pigs, intravenous): 11

c1ccc(C23CCCN2c2ccccc2C2=NCCN23)cc1 (stereo not drawn) [Example 50, hydrochloride]
ED (20%) [1]: 0.25 mg/kg | Potency relative to that of d-sotalol = 1.0 (guinea pigs, intravenous): 15

CS(=O)(=O)Oc1ccc(C23CCCN2c2ccccc2C2=NCCN23)cc1 (stereo not drawn) [Example 53, hydrochloride]
ED (20%) [1]: 1 mg/kg | Potency relative to that of d-sotalol = 1.0 (guinea pigs, intravenous): 3.6
